The source of these data is ChEMBL document CHEMBL1139002, “Synthesis and biological evaluation of simplified mycothiazole analogues” (2006).

Test [1] concerns Nippostrongylus brasiliensis. As to the kind of experiment: Anthelmintic activity against Nippostrongylus brasiliensis. It is filed as functional.
A further test concerns HCT-15. Description: Cytotoxicity against HCT15 cell line by SRB assay. In kind it is functional, Homo sapiens.

Where only a bound is given, the exact number is not on record here.

Take `C=CCC1COC(C(C)(C)C(C/C=C\CNC(=O)OC)OC(C)=O)=N1` (stereo not drawn): in test [1], the LC50 – broadly, the concentration lethal to half of the exposed cells or organisms – was determined as 40 µM. In the test on HCT-15, this molecule returned an IG50 of 430 µM. In the same order, the values of `C=CC/C=C\C[C@@H]1COC(C(C)(C)C(C/C=C\CNC(=O)OC)OC(C)=O)=N1` (stereo partly drawn) are 40 µM and 150 µM. `CCCSc1ccc2[nH]c(NC(=O)OC)nc2c1` [ALBENDAZOLE]: the LC50 in test [1] amounted to 0.34 µM. In turn, `C=CC/C=C\C[C@@H]1CSC(C(C)(C)C(C/C=C\CNC(=O)OC)OC(C)=O)=N1` (stereo partly drawn) displayed an LC50 in test [1] of over 300 µM. Take `CO[C@@]12[C@H](COC(N)=O)C3=C(C(=O)C(C)=C(N)C3=O)N1C[C@@H]1N[C@@H]12` [MITOMYCIN]: the IG50 with HCT-15 is 1.6 µM. The same measure, in the same setting: in the case of `C=CC/C=C\C[C@@H]1CSC(C(C)(C)C(O)C/C=C\CNC(=O)OC)=N1` (stereo partly drawn) it was 13 µM.
